Experiment: Unspecified test of effectiveness of AII fragments

Substance	effectiveness
Tyr-Ile-His-Pro-Phe (YIHPF; printed: Tyr-Ile-His-Pro-Phe) [AII(4-8)]	not to be effective
His-Pro-Phe [AII(6-8)]	not to be effective

Source: US20090227507A1, “Angiotensin (1-7) Dosage Forms and Uses Thereof” (UNIVERSITY OF SOUTHERN CALIFORNIA, priority 2008, published 2009)
